These results are taken from patent publication US20180250280A1 (BAYER PHARMA AKTIENGESELLSCHAFT, priority 2015, published 2018).

One experiment has as its target T1, human plasma kallikrein (Homo sapiens, UniProt P03952).
T1 construct: purchased Kordia
The experiment in a line: Determination of the plasma kallikrein activity (fluorogenic peptide substrate, AMC cleavage). It counts as biochemical. The settings on record: plasma kallikrein from Kordia 0.6 nM; substrate H-Pro-Phe-Arg-AMC 10 μM; 30 min at 22° C.; in some cases averages from multiple determinations. The method in brief: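 Kallikrein cleavage of H-Pro-Phe-Arg-AMC was followed by AMC fluorescence (ex 360, em 460) after 15 min enzyme–compound preincubation. IC50 was derived versus DMSO controls over final concentrations of 50 μM to 0.00013 μM.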

Another experiment concerns the target T2, human factor XIa (Homo sapiens, UniProt P03951).
T2 construct: purchased Kordia
The experiment in a line: Measurement of FXIa inhibition (fluorogenic peptide substrate, AMC cleavage). It counts as biochemical. Conditions: factor XIa from Kordia 0.45 nM; substrate Boc-Glu(OBzl)-Ala-Arg-AMC 10 μM; 30 min at 22° C.; in some cases averages from multiple determinations.

T2 sequence (P03951 388-625 limits assumed): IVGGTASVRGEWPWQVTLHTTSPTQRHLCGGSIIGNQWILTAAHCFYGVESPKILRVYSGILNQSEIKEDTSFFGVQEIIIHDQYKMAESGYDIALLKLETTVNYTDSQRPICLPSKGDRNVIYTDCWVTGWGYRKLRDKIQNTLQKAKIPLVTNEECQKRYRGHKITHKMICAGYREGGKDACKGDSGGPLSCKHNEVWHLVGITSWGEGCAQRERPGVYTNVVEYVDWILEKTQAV
T2 sequence (P03951 19-387 partner limits assumed): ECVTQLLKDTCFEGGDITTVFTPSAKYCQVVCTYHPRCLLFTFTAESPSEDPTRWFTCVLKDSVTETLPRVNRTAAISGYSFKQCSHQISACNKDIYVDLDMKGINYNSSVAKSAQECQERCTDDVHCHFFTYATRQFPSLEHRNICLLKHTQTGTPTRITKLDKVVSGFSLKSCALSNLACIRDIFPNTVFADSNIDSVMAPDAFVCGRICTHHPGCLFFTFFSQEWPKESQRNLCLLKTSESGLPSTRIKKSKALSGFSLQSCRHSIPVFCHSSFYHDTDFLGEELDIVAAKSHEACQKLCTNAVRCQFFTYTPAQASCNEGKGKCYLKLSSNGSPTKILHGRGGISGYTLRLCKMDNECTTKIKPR
T1 sequence (P03952 391-638 limits assumed): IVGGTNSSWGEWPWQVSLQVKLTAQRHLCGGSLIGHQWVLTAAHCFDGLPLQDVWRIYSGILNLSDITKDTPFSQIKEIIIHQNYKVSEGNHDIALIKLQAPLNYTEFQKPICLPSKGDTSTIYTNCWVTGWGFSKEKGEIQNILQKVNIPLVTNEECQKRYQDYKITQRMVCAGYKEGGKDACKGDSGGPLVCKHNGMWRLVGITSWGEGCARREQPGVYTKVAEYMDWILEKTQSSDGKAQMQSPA
T1 sequence (P03952 20-390 partner limits assumed): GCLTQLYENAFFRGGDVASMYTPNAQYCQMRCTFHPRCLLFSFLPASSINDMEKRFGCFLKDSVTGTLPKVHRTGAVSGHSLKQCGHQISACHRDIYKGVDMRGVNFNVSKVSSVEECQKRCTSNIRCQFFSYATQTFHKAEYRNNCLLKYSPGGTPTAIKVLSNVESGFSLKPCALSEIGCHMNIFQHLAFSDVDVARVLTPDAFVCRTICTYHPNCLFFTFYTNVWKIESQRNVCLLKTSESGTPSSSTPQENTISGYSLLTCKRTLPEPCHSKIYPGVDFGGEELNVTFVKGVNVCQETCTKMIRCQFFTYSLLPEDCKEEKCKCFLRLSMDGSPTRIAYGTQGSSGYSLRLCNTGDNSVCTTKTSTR

What is called IC50 is the midpoint of a concentration-inhibition curve. A higher IC50 goes with weaker potency. As to `COc1cn(C(C[C@H]2CCCCO2)C(=O)Nc2ccc(C(=O)O)cc2)c(=O)cc1-c1cc(Cl)ccc1OCC(F)(F)F` (stereo partly drawn) [Example 20, 4-[(2-{4-[5-Chloro-2-(2,2,2-trifluoroethoxy)phenyl]-5-methoxy-2-oxopyridin-1(2H)-yl}-3-[(2R)-tetrahydro-2H-pyran-2-yl]propanoyl)amino]benzoic acid], the 50% inhibitory concentration (IC50) at human plasma kallikrein was 120 nM; on human factor XIa it was 2.5 nM.

Turning to `COc1cn(C(CCOC(C)(C)C)C(=O)Nc2ccc(C(=O)O)cc2)c(=O)cc1-c1cc(Cl)ccc1OCC(F)F` (racemic) [Example 25, 4-[(4-tert-Butoxy-2-{4-[5-chloro-2-(2,2-difluoroethoxy)phenyl]-5-methoxy-2-oxopyridin-1(2H)-yl}butanoyl)amino]benzoic acid], the IC50 against human plasma kallikrein came out at 120 nM; against human factor XIa, 2.4 nM.

Consider `COc1cn(C(CCOC(C)(C)C)C(=O)Nc2ccc(C(=O)O)cc2)c(=O)cc1-c1cc(Cl)ccc1OCC(F)(F)F` (single isomer, unassigned) [Example 8, 4-[(4-tert-Butoxy-2-{4-[5-chloro-2-(2,2,2-trifluoroethoxy)phenyl]-5-methoxy-2-oxopyridin-1(2H)-yl}butanoyl)amino]benzoic acid], for which the IC50 amounted to 19 nM on human plasma kallikrein and 0.94 nM on human factor XIa.

Turning to `CNC(=O)c1ccc(NC(=O)C(CC2COCCO2)n2cc(OC)c(-c3cc(Cl)ccc3OCC(F)(F)F)cc2=O)cn1` (single isomer, unassigned) [Example 63, 5-{[2-{4-[5-Chloro-2-(2,2,2-trifluoroethoxy)phenyl]-5-methoxy-2-oxopyridin-1(2H)-yl}-3-(1,4-dioxan-2-yl)propanoyl]amino}-N-methylpyridine-2-carboxamide], the results for the IC50 against human plasma kallikrein and against human factor XIa were 14 nM and 1.3 nM, respectively.

Consider `CNC(=O)c1ccc(NC(=O)C(CCOC(C)(C)C)n2cc(OC)c(-c3cc(Cl)ccc3OCC(F)(F)F)cc2=O)cn1` (racemic) [Example 12, 5-[(4-tert-Butoxy-2-{4-[5-chloro-2-(2,2,2-trifluoroethoxy)phenyl]-5-methoxy-2-oxopyridin-1(2H)-yl}butanoyl)amino]-N-methylpyridine-2-carboxamide], for which the IC50 against human plasma kallikrein amounted to 60 nM; at human factor XIa it was 12 nM.

On to `COc1cn(C(CC2=NOCCC2)C(=O)Nc2ccc3nn(C)cc3c2)c(=O)cc1-c1cc(Cl)ccc1OCC(F)(F)F` (racemic) [Example 24, 2-{4-[5-Chloro-2-(2,2,2-trifluoroethoxy)phenyl]-5-methoxy-2-oxopyridin-1(2H)-yl}-3-(5,6-dihydro-4H-1,2-oxazin-3-yl)-N-(2-methyl-2H-indazol-5-yl)propanamide], for which the values for the IC50 against human plasma kallikrein and at human factor XIa were 130 nM and 36 nM, respectively.

On to `COc1cn(C(CCOC(C)(C)C)C(=O)Nc2ccc(C(N)=O)c(F)c2)c(=O)cc1-c1cc(Cl)ccc1OCC(F)F` (racemic) [Example 26, 4-[(4-tert-Butoxy-2-{4-[5-chloro-2-(2,2-difluoroethoxy)phenyl]-5-methoxy-2-oxopyridin-1(2H)-yl}butanoyl)amino]-2-fluorobenzamide], for which the concentration for half-maximal inhibition (IC50) at human plasma kallikrein is 150 nM; against human factor XIa, 25 nM.

In the case of `COc1cc(NC(=O)C(C[C@@H]2CCCCO2)n2cc(OC)c(-c3cc(Cl)ccc3OCC(F)(F)F)cc2=O)ccc1C(=O)O` (stereo partly drawn) [Example 76, 4-({2-{4-[5-Chloro-2-(2,2,2-trifluoroethoxy)phenyl]-5-methoxy-2-oxopyridin-1(2H)-yl}-3-[(2S)-tetrahydro-2H-pyran-2-yl]propanoyl}amino)-2-methoxybenzoic acid], the results for the concentration for half-maximal inhibition (IC50) against human plasma kallikrein and against human factor XIa were 150 nM and 2.2 nM, respectively.

As to `COc1cn(C(CC2COCCO2)C(=O)Nc2ccc(C(=O)O)cc2)c(=O)cc1-c1cc(Cl)ccc1OCC(F)(F)F` (single isomer, unassigned) [Example 62, 4-{[2-{4-[5-Chloro-2-(2,2,2-trifluoroethoxy)phenyl]-5-methoxy-2-oxopyridin-1(2H)-yl}-3-(1,4-dioxan-2-yl)propanoyl]amino}benzoic acid], the values for the half-maximal inhibitory concentration (IC50) on human plasma kallikrein and at human factor XIa were 15 nM and 0.52 nM, respectively.

As for `COc1cn(C(C[C@@H]2CCCCO2)C(=O)Nc2ccc(C(=O)O)cc2)c(=O)cc1-c1cc(Cl)ccc1OCC(F)(F)F` (single isomer, unassigned) [Example 50], the IC50 at human plasma kallikrein is 19 nM; on human factor XIa, 0.41 nM.
